Data taken from ChEMBL document CHEMBL5614417, “Discovery of AMPs from random peptides via deep learning-based model and biological activity validation” (Eur J Med Chem, 2024).
Converted amounts (≈) assume the structure as drawn. The source made the active and inactive calls. The calls are words filed in the database; no cut-off is given here. Where a SMILES comes first, the peptide text is derived from it.

How the values were obtained:
Cell membrane [1] = assay: Disruption of outer membrane integrity in Escherichia coli assessed as increase in fluorescence intensity by measuring NPN uptake at 1 to 4 times MIC by fluorescence based analysis; assay type: cell membranes; details: TDE = time-dependent effect
Staphylococcus aureus [2] = assay: Antibacterial activity against Staphylococcus aureus ATCC 25923 incubated for 18 hrs in presence of 50 mM NaCl by visual inspection method; assay type: functional
Staphylococcus aureus [3] = assay: Antibacterial activity against methicillin resistant Staphylococcus aureus 4 incubated for 18 hrs by visual inspection method; assay type: functional
Escherichia coli [4] = assay: Antibacterial activity against Escherichia coli ATCC 25922 incubated for 18 hrs in presence of 100 mM NaCl by visual inspection method; assay type: functional
Staphylococcus aureus [5] = assay: Antibacterial activity against Staphylococcus aureus ATCC 25923 incubated for 18 hrs in presence of 100 mM NaCl by visual inspection method; assay type: functional
Cell membrane [6] = assay: Induction of cell membrane damage in Escherichia coli assessed as change in morphology by measuring numerous blebs covered membrane at 4 times MIC incubated for 5 hrs by SEM analysis; assay type: cell membranes
Acinetobacter baumannii [7] = assay: Antibacterial activity against multidrug resistant Acinetobacter baumannii 1 incubated for 18 hrs by visual inspection method; assay type: functional
Acinetobacter baumannii [8] = assay: Antibacterial activity against multidrug resistant Acinetobacter baumannii 2 incubated for 18 hrs by visual inspection method; assay type: functional
Escherichia coli [9] = assay: Antibacterial activity against ESBL Escherichia coli 5 incubated for 18 hrs by visual inspection method; assay type: functional
Staphylococcus aureus [10] = assay: Antibacterial activity against Staphylococcus aureus ATCC 25923 incubated for 18 hrs by visual inspection method; assay type: functional
Cell membrane [11] = assay: Induction of cell membrane damage in Staphylococcus aureus assessed as decrease in red/green fluorescence ratio at 2 times MIC by DiOC2(3) fluorescent probe based assay; assay type: cell membranes
Cell membrane [12] = assay: Induction of cell membrane damage in Staphylococcus aureus assessed as change in morphology by measuring deformed membrane at 4 times MIC incubated for 5 hrs by SEM analysis; assay type: cell membranes
Staphylococcus aureus [13] = assay: Antibacterial activity against methicillin resistant Staphylococcus aureus 1 incubated for 18 hrs by visual inspection method; assay type: functional
Cell membrane [14] = assay: Induction of inner membrane permeability in Escherichia coli ML-35 measured every 5 mins for 90 mins by ONPG dye based assay; assay type: cell membranes
Escherichia coli [15] = assay: Antibacterial activity against Escherichia coli ATCC 25922 incubated for 18 hrs in presence of 150 mM NaCl by visual inspection method; assay type: functional
[16] = Hemolytic activity in rat erythrocytes at 1000 ug/ml incubated for 1 hr; assay type: toxicity, cell-based, Erythrocyte; details: at 1000 µg/mL, read-out: Activity
Staphylococcus aureus [17] = assay: Antibacterial activity against methicillin resistant Staphylococcus aureus 2 incubated for 18 hrs by visual inspection method; assay type: functional
Escherichia coli [18] = assay: Antibacterial activity against Escherichia coli ATCC 25922 incubated for 18 hrs in presence of 50 mM NaCl by visual inspection method; assay type: functional
Cell membrane [19] = assay: Induction of inner membrane permeability in Escherichia coli ML-35 at 1 to 4 times MIC by ONPG dye based assay; assay type: cell membranes; details: TDE = time-dependent effect
Escherichia coli [20] = assay: Antibacterial activity against ESBL Escherichia coli 4 incubated for 18 hrs by visual inspection method; assay type: functional
Cell membrane [21] = assay: Disruption of outer membrane integrity in Escherichia coli assessed as increase in fluorescence intensity by measuring NPN uptake measured every min for 15 mins by fluorescence based analysis; assay type: cell membranes
Cell membrane [22] = assay: Induction of cell membrane damage in Escherichia coli assessed as change in morphology by measuring deformed membrane at 4 times MIC incubated for 5 hrs by SEM analysis; assay type: cell membranes
[23] = system: Staphylococcus epidermidis; assay: Antibacterial activity against Staphylococcus epidermidis ATCC 12228 incubated for 18 hrs by visual inspection method; assay type: functional
Staphylococcus aureus [24] = assay: Antibacterial activity against Staphylococcus aureus ATCC 25923 incubated for 18 hrs in presence of 150 mM NaCl by visual inspection method; assay type: functional
Cell membrane [25] = assay: Induction of cell membrane damage in Escherichia coli at 4 times MIC incubated for 30 mins by PI staining based confocal laser scanning microscopic analysis; assay type: cell membranes
Escherichia coli [26] = assay: Antibacterial activity against ESBL Escherichia coli 2 incubated for 18 hrs by visual inspection method; assay type: functional
Bacillus subtilis = assay: Antibacterial activity against Bacillus subtilis ATCC 23857 incubated for 18 hrs by visual inspection method; assay type: functional
Cell membrane [27] = assay: Induction of cell membrane damage in Escherichia coli assessed as change in morphology by measuring roughened membrane at 4 times MIC incubated for 5 hrs by SEM analysis; assay type: cell membranes
Acinetobacter baumannii [28] = assay: Antibacterial activity against multidrug resistant Acinetobacter baumannii 4 incubated for 18 hrs by visual inspection method; assay type: functional
Cell membrane [29] = assay: Induction of cell membrane damage in Staphylococcus aureus assessed as change in morphology by measuring roughened membrane at 4 times MIC incubated for 5 hrs by SEM analysis; assay type: cell membranes
Erythrocyte [30] = assay: Hemolytic activity in rat erythrocytes incubated for 1 hr; assay type: toxicity, cell-based
Klebsiella pneumoniae = assay: Antibacterial activity against Klebsiella pneumoniae ATCC 700603 incubated for 18 hrs by visual inspection method; assay type: functional
Acinetobacter baumannii [31] = assay: Antibacterial activity against Acinetobacter baumannii ATCC 19606 incubated for 18 hrs by visual inspection method; assay type: functional
Cell membrane [32] = assay: Induction of cell membrane damage in Staphylococcus aureus assessed as decrease in red/green fluorescence ratio by DiOC2(3) fluorescent probe based assay; assay type: cell membranes
Acinetobacter baumannii [33] = assay: Antibacterial activity against multidrug resistant Acinetobacter baumannii 5 incubated for 18 hrs by visual inspection method; assay type: functional
Erythrocyte [34] = assay: Hemolytic activity in rat erythrocytes at 250 ug/ml incubated for 1 hr; assay type: toxicity, cell-based; details: dose 250 µg/ml
Escherichia coli [35] = assay: Antibacterial activity against Escherichia coli ATCC 25922 incubated for 18 hrs by visual inspection method; assay type: functional
Erythrocyte [36] = assay: Hemolytic activity in rat erythrocytes at 500 to 1000 ug/ml incubated for 1 hr; assay type: toxicity, cell-based; details: dose 500-1000 µg/ml
Escherichia coli [37] = assay: Antibacterial activity against ESBL Escherichia coli 3 incubated for 18 hrs by visual inspection method; assay type: functional
Acinetobacter baumannii [38] = assay: Antibacterial activity against multidrug resistant Acinetobacter baumannii 3 incubated for 18 hrs by visual inspection method; assay type: functional
Staphylococcus aureus [39] = assay: Antibacterial activity against methicillin resistant Staphylococcus aureus 3 incubated for 18 hrs by visual inspection method; assay type: functional
Cell membrane [40] = assay: Induction of cell membrane damage in Staphylococcus aureus assessed as change in morphology by measuring numerous blebs covered membrane at 4 times MIC incubated for 5 hrs by SEM analysis; assay type: cell membranes
Escherichia coli [41] = assay: Antibacterial activity against ESBL Escherichia coli 1 incubated for 18 hrs by visual inspection method; assay type: functional
Cell membrane [42] = assay: Induction of cell membrane damage in Staphylococcus aureus at 4 times MIC incubated for 30 mins by PI staining based confocal laser scanning microscopic analysis; assay type: cell membranes
Staphylococcus aureus [43] = assay: Antibacterial activity against Staphylococcus aureus infected in BALB/c mouse at 10 mg/kg administered every 4 hrs for 3 doses and measured after 4 hrs post last dose; assay type: functional, organism-based; details: time 16.0 hrs

In the case of `CC[C@H](C)[C@H](NC(=O)[C@H](Cc1c[nH]c2ccccc12)NC(=O)CNC(=O)[C@H](CCC(N)=O)NC(=O)[C@@H](N)CCCNC(=N)N)C(=O)N[C@@H](Cc1c[nH]c2ccccc12)C(=O)N[C@@H](Cc1ccc(O)cc1)C(=O)NCC(=O)N[C@@H](Cc1ccccc1)C(=O)N[C@@H](Cc1ccccc1)C(=O)N[C@@H](Cc1c[nH]c2ccccc12)C(=O)N[C@@H](CCCCN)C(=O)N[C@@H](CCCCN)C(N)=O` (H-RQGWIWYGFFWKK-NH2), the Activity (Cell membrane [1]) is reported as “Tde”, the MIC (Staphylococcus aureus [2]) is reported as 7.5 µg/mL and the MIC (Staphylococcus aureus [3]) is reported as 7.5 µg/mL (≈ 4.16 µM). The MIC (Escherichia coli [4]) was 30 µg/mL, the MIC (Staphylococcus aureus [5]) was 7.5 µg/mL and the Activity (Cell membrane [6]) was “Active”. The MIC (Acinetobacter baumannii [7]) was 15 µg/mL (≈ 8.33 µM), the MIC (Acinetobacter baumannii [8]) was 15 µg/mL (≈ 8.33 µM) and the MIC (Escherichia coli [9]) was 30 µg/mL (≈ 16.7 µM). The MIC (Staphylococcus aureus [10]) was 7.5 µg/mL (≈ 4.16 µM), the Activity (Cell membrane [11]) was “Active” and the Activity (Cell membrane [12]) was “Active”. For the same compound, the MIC (Staphylococcus aureus [13]) was 7.5 µg/mL (≈ 4.16 µM), the Activity (Cell membrane [14]) was “Dose-Dependent Effect” and the MIC (Escherichia coli [15]) was 30 µg/mL. For the same compound, the hemolysis at 1 h, 1000 ug/ml [16] was 7.47%, the MIC (Staphylococcus aureus [17]) was 7.5 µg/mL (≈ 4.16 µM) and the MIC (Escherichia coli [18]) was 30 µg/mL. For the same compound, the Activity (Cell membrane [19]) was “Tde”, the MIC (Escherichia coli [20]) was 30 µg/mL (≈ 16.7 µM) and the Activity (Cell membrane [21]) was “Dose-Dependent Effect”. For the same compound, the Activity (Cell membrane [22]) was “Active”, the MIC [23] was 3.75 µg/mL (≈ 2.08 µM) and the MIC (Staphylococcus aureus [24]) was 7.5 µg/mL. The Activity (Cell membrane [25]) was “Active”, the MIC (Escherichia coli [26]) was 30 µg/mL (≈ 16.7 µM) and the MIC (Bacillus subtilis) was 7.5 µg/mL (≈ 4.16 µM). For the same compound, the Activity (Cell membrane [27]) was “Active”, the MIC (Acinetobacter baumannii [28]) was 15 µg/mL (≈ 8.33 µM) and the Activity (Cell membrane [29]) was “Active”. It also gave an HC5 (Erythrocyte [30]) of 560.73 µg/mL, an MIC (Klebsiella pneumoniae) of 60 µg/mL (≈ 33.3 µM) and an MIC (Acinetobacter baumannii [31]) of 15 µg/mL (≈ 8.33 µM). For the same compound, the Activity (Cell membrane [32]) was “Dose-Dependent Effect”, the MIC (Acinetobacter baumannii [33]) was 15 µg/mL (≈ 8.33 µM) and the Activity (Erythrocyte [34]) was “Non-Toxic”. The MIC (Escherichia coli [35]) was 30 µg/mL (≈ 16.7 µM), the Activity (Erythrocyte [36]) was “Toxic” and the MIC (Escherichia coli [37]) was 30 µg/mL (≈ 16.7 µM). The MIC (Acinetobacter baumannii [38]) was 15 µg/mL (≈ 8.33 µM), the MIC (Staphylococcus aureus [39]) was 7.5 µg/mL (≈ 4.16 µM) and the Activity (Cell membrane [40]) was “Active”. For the same compound, the MIC (Escherichia coli [41]) was 30 µg/mL (≈ 16.7 µM) and the Activity (Cell membrane [42]) was “Active”.

`CN[C@H](CC(C)C)C(=O)N[C@H]1C(=O)N[C@@H](CC(N)=O)C(=O)N[C@H]2C(=O)N[C@H]3C(=O)N[C@H](C(=O)N[C@H](C(=O)O)c4cc(O)cc(O)c4-c4cc3ccc4O)[C@H](O)c3ccc(c(Cl)c3)Oc3cc2cc(c3O[C@@H]2O[C@H](CO)[C@@H](O)[C@H](O)[C@H]2O[C@H]2C[C@](C)(N)[C@H](O)[C@H](C)O2)Oc2ccc(cc2Cl)[C@H]1O` [VANCOMYCIN] showed an MIC (Staphylococcus aureus [3]) of 0.94 µg/mL (≈ 0.649 µM), an MIC (Staphylococcus aureus [10]) of 0.94 µg/mL (≈ 0.649 µM) and an MIC (Staphylococcus aureus [13]) of 0.94 µg/mL (≈ 0.649 µM). It also gave an MIC (Staphylococcus aureus [17]) of 0.94 µg/mL (≈ 0.649 µM), an MIC [23] of 0.94 µg/mL (≈ 0.649 µM) and an MIC (Bacillus subtilis) of 0.94 µg/mL (≈ 0.649 µM). The Activity (Staphylococcus aureus [43]) was “Active” and the MIC (Staphylococcus aureus [39]) was 0.94 µg/mL (≈ 0.649 µM).
